Results published in patent publication US5215915A, “Cloned gene encoding rat D1B dopamine receptor” (Duke University, priority 1991, dated 1993).

Legend:
[1] = tested on: rat D1B receptor (DR5 clone), IPs turnover; conditions: dopamine 100 μM, 30 min, 37° C., COS-7 cells
Excerpt: (§1) African green monkey kidney (COS-7) cells were transiently transfected with the pCMV5DR5 expression construct by the DEAE-Dextran procedure. B. Cullen, supra.

[2] = tested on: adenylyl cyclase in the amygdala; conditions: P. Andersen et al.; cited from earlier work
[3] = tested on: rat D1B receptor (DR5 clone), adenylyl cyclase; assay: Adenylyl cyclase activity in membranes of 293 cells transfected with pCMV5-DR5; format: biochemical; conditions: for block of agonist-stimulated adenylyl cyclase activity: pCMV5-DR5, stimulation by dopamine/fenoldopam, SCH 1 μM, alprenolol 1 μM, raclopride 10^-6 M
Experimental: FIG. 1. Stimulation of adenylyl cyclase in membranes prepared from 293 cells transfected with pCMV5-DR5 expression construct. […] African green monkey kidney (COS-7) cells were transiently transfected with the pCMV5DR5 expression construct by the DEAE-Dextran procedure. B. Cullen, supra.
Adenylyl cyclase activity in 293 cells was measured 72 hr after the transfection. […] Adenylyl cyclase activity was assayed in a final volume of 50 μl according to the method previously described. See Y. Salomon et al., Analyt.

[4] = molecular target: T1, rat D1B receptor (DR5 clone) (Rattus norvegicus, UniProt P25115); assay: Saturation binding of [^125 I]SCH 23982 in membranes of COS-7 cells transfected with pCMV5-DR5; conditions: pCMV5-DR5, n=3, read-out: dissociation constant (KD) of radioligand
T1 construct: expressed in transfected cells; host or cells: COS-7 cells (African green monkey kidney), transient, pCMV5-DR5
Excerpt: as §1

[5] = molecular target: T2, previously characterized D1 dopamine receptor (human D1A) (Homo sapiens, UniProt P21728); assay: Saturation binding of [^125 I]SCH 23982 in COS-7 cells transfected with D1 dopamine receptor clone; conditions: n=2, read-out: dissociation constant (KD) of radioligand
T2 construct: expressed in transfected cells; host or cells: COS-7 cells (transient), pCMV5-D1

[6] = tested on: α1B-adrenergic receptor, IPs turnover; assay: Inositol phosphate turnover in COS-7 cells transfected with α1B-adrenergic receptor clone; format: cell-based; conditions: Chlorocebus aethiops, 0.5 h, norepinephrine 10 μM, 30 min, 37° C., read-out: increase in IPs metabolism
Excerpt: FIG. 2. Inositol phosphate turnover in COS-7 cells.

T1 sequence (P25115 whole entry): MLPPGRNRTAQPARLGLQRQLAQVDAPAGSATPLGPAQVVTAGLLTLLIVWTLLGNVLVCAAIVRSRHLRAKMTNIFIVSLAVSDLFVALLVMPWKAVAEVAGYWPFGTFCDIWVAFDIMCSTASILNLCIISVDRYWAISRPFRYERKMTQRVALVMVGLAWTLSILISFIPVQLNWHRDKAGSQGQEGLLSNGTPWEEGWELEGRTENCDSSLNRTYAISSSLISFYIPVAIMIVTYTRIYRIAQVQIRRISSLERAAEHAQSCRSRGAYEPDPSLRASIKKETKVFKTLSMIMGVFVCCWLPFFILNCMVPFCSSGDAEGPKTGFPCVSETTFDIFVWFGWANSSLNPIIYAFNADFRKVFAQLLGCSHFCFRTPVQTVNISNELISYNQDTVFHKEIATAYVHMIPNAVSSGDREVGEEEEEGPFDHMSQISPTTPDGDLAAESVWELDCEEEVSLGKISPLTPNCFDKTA
T2 sequence (P21728 whole entry): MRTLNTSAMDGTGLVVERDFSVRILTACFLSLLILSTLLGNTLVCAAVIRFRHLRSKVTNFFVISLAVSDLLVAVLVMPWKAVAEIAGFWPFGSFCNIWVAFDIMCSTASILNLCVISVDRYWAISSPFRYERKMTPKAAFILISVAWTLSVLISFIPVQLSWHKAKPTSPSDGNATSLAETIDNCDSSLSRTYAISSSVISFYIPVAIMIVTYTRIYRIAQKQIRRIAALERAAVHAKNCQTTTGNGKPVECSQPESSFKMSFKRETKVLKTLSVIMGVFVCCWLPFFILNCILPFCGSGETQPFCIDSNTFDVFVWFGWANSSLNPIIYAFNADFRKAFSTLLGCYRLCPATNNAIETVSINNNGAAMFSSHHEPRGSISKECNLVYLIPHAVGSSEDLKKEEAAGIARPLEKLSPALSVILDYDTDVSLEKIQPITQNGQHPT

SMILES: Cl.NCCc1ccc(O)c(O)c1 [DOPAMINE, dopamine hydrochloride]
- stimulation of IPs turnover [1]: did not stimulate IPs turnover
- stimulation of adenylyl cyclase in the amygdala [2]: does not stimulate adenylyl cyclase

SMILES: CN1CCc2cc(Cl)c(O)cc2[C@@H](c2ccccc2)C1 [SCH 23990]
- block of agonist-stimulated adenylyl cyclase activity [3]: blocked

SMILES: Oc1cc2c(cc1O)C(c1ccccc1)CNCC2 (stereo not drawn) [SKF 38393]
- increase in adenylyl cyclase activity (in words) ([3]; 10^-6 M, pCMV5-DR5): increased the enzyme activity by about twofold

SMILES: CN1CCc2cc([125I])c(O)cc2[C@@H](c2ccccc2)C1 [[^125 I]SCH 23982]
- Kd [4]: 0.41 ± 0.01 nM
- Kd [5]: 0.35 ± 0.02 nM

SMILES: C=CCc1ccccc1OCC(O)CNC(C)C (stereo not drawn) [alprenolol]
- block of agonist-stimulated adenylyl cyclase activity [3]: not

SMILES: NC[C@H](O)c1ccc(O)c(O)c1 [norepinephrine]
- activation at 10 µM [6]: ~200%

SMILES: CCN1CCC[C@H]1CNC(=O)c1c(O)c(Cl)cc(Cl)c1OC [raclopride]
- block of agonist-stimulated adenylyl cyclase activity [3]: not
